Paper PMC3119665, “A New Drug Design Targeting the Adenosinergic System for Huntington's Disease” (PLoS ONE, 2011)

Key:
R6/2 mice = settings: cited from earlier work
[1] = target: Adenosine transporter (ENT1); settings: ENT1 inhibitor reference value; no reference given; cited from earlier work
A2AR = target: T1, A2AR (Rattus norvegicus, UniProt P30543); assay: cAMP assay in PC12 cells; format: cell-based; settings: PC12 cells, T1-11 10 µM, SCH 1 µM, 20 min
T1 construct: Treatment of PC12 cells with T1-11 dose-dependently elevated the cellular cAMP levels; endogenous in cells; host or cells: PC12
T1 sequence (P30543 whole entry): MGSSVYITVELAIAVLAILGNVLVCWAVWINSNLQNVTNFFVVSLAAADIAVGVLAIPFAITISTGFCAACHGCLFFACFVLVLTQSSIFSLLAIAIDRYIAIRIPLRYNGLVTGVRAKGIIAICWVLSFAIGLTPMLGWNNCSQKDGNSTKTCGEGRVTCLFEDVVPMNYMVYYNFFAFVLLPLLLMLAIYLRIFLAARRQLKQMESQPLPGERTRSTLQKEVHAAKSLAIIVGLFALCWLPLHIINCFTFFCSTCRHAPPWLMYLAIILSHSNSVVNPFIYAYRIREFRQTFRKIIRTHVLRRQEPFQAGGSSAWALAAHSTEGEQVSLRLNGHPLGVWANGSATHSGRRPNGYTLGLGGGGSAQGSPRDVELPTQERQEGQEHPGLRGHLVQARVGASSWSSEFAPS
Procedure: PC12 cells were plated at the density of 5×10^5 cells/well (on 12-well plates) and incubated with the indicated reagent(s) for the desired period of time. Cells were washed twice with ice-cold Locke's solution (150 mM NaCl, 5.6 mM KCl, 5 mM glucose, 1 mM MgCl2, and 10 mM HEPES, adjusted to pH 7.4). Cellular cAMP was extracted by adding 0.3 ml of 0.1 M HCl to each well and incubating this for 10 min on ice.

PC12 cells = assay: MTT metabolism assay, serum-deprived PC12 cells; format: cell-based, rat; settings: 24 h
Procedure: Survival was assessed by the 3-(4,5-dimethylthiazol-2-yl)-2,5-diphenyltetrazolium bromide (MTT) metabolism assay as described elsewhere, [65]. In brief, cells grown on 150-mm plates were washed three times with PBS and resuspended in DMEM. Suspended cells (1×10^4 cells) were plated on 96-well plates and treated with or without the indicated reagent. After incubation for 24 h, MTT (0.5 mg/ml) was added to the medium and incubated for 3 h. After discarding the medium, DMSO (100 µl) was then applied to the well to dissolve the formazan crystals derived from the mitochondrial cleavage of the tetrazolium ring by live cells. The absorbance at 570/630 nm in each well was measured on a micro-enzyme-linked immunosorbent assay reader.

CCNC(=O)[C@H]1O[C@@H](n2cnc3c(N)nc(NCCc4ccc(CCC(=O)O)cc4)nc32)[C@H](O)[C@@H]1O [CGS]
Effects on major HD symptoms (brain atrophy, striatal aggregates, deteriorated motor coordination) (R6/2 mice): provides beneficial effects on several major HD symptoms

O=[N+]([O-])c1ccc(CSc2ncnc3c2ncn3[C@@H]2O[C@H](CO)[C@@H](O)[C@H]2O)cc1 [NBTI, 6-[(4-nitrobenzyl)thio]-9-β-D-ribofuranosylpurine]
Ki [1]: 0.85 nM

Nc1nc2c(cnn2CCc2ccccc2)c2nc(-c3ccco3)nn12 [SCH58216]
Effect on T1-11-induced elevation in the cAMP level (A2AR): effectively blocked the T1-11-induced elevation in the cAMP level
Effect of A2AR antagonist on T1-11's prevention of serum deprivation-induced death (PC12 cells): blocked the effect of T1-11
Motor coordination (R6/2 mice; treatment for 1 week): worsened motor coordination

Nc1nc(NCCc2ccc(O)cc2)nc2nc(-c3ccco3)nn12 [ZM241385]
Effect of A2AR antagonist on T1-11's prevention of serum deprivation-induced death (PC12 cells): blocked the effect of T1-11
